Here are results for 19 compounds from patent publication US10736883B2, “Triazole furan compounds as agonists of the APJ receptor” (AMGEN INC., priority 2016, dated 2020).

The target of this assay is APJ receptor (Homo sapiens (Human), UniProt P35414). In words: [35S]GTPγS binding assay on membranes from CHO cells stably expressing human APJ receptor. In kind it is biochemical. Conditions: membranes of CHO cells stably expressing human APJ receptor, means of several independent experiments, read-out: Activity hAPJ SPA EC50 IP. As to the method:
The human APJ receptor was cloned by polymerase chain reaction and the gene encoding the receptor was subcloned in pFLAG-CMV™-3 expression vector (Sigma, Saint Louis, Mo. USA) in-house at Amgen. A GTPγS binding assay was performed on membranes prepared from CHO cells stably expressing human APJ receptor. The optimum experimental conditions for the concentrations of GDP, MgCl2, and NaCl in the assay buffer were initially determined. The assay was performed in assay buffer [20 mM HEPES, pH 7.5, 5 mM MgCl2, and 0.1% (w/v) BSA with 200 mM NaCl, 3 μM GDP] and membranes expressing human APJ receptor/well along with WGA PS beads. The reaction was initiated by addition of 0.2 nM [^35S]GTPγS (Perkin Elmer Life and Analytical Sciences, Waltham USA) in the absence or presence of various ligands and incubated at RT for 90 min. Nonspecific binding was determined in the presence of 100 μM GTPγS and was always less than 0.2% of total binding. All the results presented are means of several independent experiments and analyzed by non-linear regression methods using commercially available program Prism (GraphPad, San Diego, Calif.) to obtain EC50 detailed in Table 26.
(In general: GTPγS is a poorly hydrolysed GTP analogue; its binding reports G protein activation.)

APJ receptor, sequence (P35414 whole entry): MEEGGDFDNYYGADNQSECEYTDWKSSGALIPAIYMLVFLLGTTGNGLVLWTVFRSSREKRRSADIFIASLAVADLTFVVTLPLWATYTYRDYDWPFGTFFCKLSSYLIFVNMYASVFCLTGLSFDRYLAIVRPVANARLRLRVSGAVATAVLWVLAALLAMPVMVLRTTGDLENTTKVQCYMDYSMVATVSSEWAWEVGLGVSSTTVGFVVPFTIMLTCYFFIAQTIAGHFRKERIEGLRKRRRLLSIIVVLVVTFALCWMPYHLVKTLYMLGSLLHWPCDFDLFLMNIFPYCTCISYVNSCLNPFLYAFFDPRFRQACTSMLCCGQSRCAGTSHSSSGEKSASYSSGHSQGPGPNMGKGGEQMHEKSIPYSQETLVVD

Turning to `COc1cccc(OC)c1-n1c(NS(=O)(=O)[C@H](C)[C@@H](O)c2cn3ccccc3n2)nnc1-c1ccc(C)o1` (racemic) [Example 269.0, (1R,2S)—N-(4-(2,6-Dimethoxyphenyl)-5-(5-methyl-2-furanyl)-4H-1,2,4-triazol-3-yl)-1-hydroxy-1-imidazo[1,2-a]pyridin-2-yl-2-propanesulfonamide and (1S,2R)—N-(4-(2,6-dimethoxyphenyl)-5-(5-methyl-2-furanyl)-4H-1,2,4-triazol-3-yl)-1-hydroxy-1-imidazo[1,2-a]pyridin-2-yl-2-propanesulfonamide], the EC50 (in general, the concentration at which the effect is half-maximal) came to 490 pM. Under `COc1cccc(OC)c1-n1c(NS(=O)(=O)[C@@H]2COCC[C@@H]2O)nnc1-c1ccc(C)o1` (single isomer, unassigned) [Example 404.0] stands 36000 pM; under `COc1cccc(OC)c1-n1c(NS(=O)(=O)[C@H](CCO)Cc2ncc(C)cn2)nnc1-c1ccc(C)o1` [Example 80.0], 1100 pM; under `COc1cccc(OC)c1-n1c(NS(=O)(=O)[C@H](C)[C@@H](OC)c2cn3ccccc3n2)nnc1-c1ccc(C)o1` (single isomer, unassigned) [Example 287.0, (1R,2S)—N-(4-(2,6-Dimethoxyphenyl)-5-(5-methyl-2-furanyl)-4H-1,2,4-triazol-3-yl)-1-imidazo[1,2-a]pyridin-2-yl-1-methoxy-2-propanesulfonamide or (1S,2R)—N-(4-(2,6-dimethoxyphenyl)-5-(5-methyl-2-furanyl)-4H-1,2,4-triazol-3-yl)-1-imidazo[1,2-a]pyridin-2-yl-1-methoxy-2-propanesulfonamide], 4100 pM. As for `COc1cccc(OC)c1-n1c(NS(=O)(=O)[C@H](C)[C@@H](OC)c2ccc(C#N)cc2C#N)nnc1-c1ccc(C)o1` (single isomer, unassigned) [Example 143.0, (1S,2R)-1-(2,4-Dicyanophenyl)-N-(4-(2,6-dimethoxyphenyl)-5-(5-methyl-2-furanyl)-4H-1,2,4-triazol-3-yl)-1-methoxy-2-propanesulfonamide or (1R,2S)-1-(2,4-dicyanophenyl)-N-(4-(2,6-dimethoxyphenyl)-5-(5-methyl-2-furanyl)-4H-1,2,4-triazol-3-yl)-1-methoxy-2-propanesulfonamide], the EC50 is 72 pM. Under `COc1cccc(OC)c1-n1c(NS(=O)(=O)[C@H](C)Cc2ncc(Cl)cc2NC(C)=O)nnc1-c1ccco1` (single isomer, unassigned) [Example 9.0, N-(5-chloro-2-((2R)-2-((4-(2,6-dimethoxyphenyl)-5-(2-furanyl)-4H-1,2,4-triazol-3-yl)sulfamoyl)propyl)-3-pyridinyl)acetamide or N-(5-chloro-2-((2S)-2-((4-(2,6-dimethoxyphenyl)-5-(2-furanyl)-4H-1,2,4-triazol-3-yl)sulfamoyl)propyl)-3-pyridinyl)acetamide] stands 91 pM; under `COc1cccc(OC)c1-n1c(NS(=O)(=O)CCc2ncc(Cl)cc2C2=CCOCC2)nnc1-c1ccco1` [Example 215.0, 2-(5-Chloro-3-(3,6-dihydro-2H-pyran-4-yl)-2-pyridinyl)-N-(4-(2,6-dimethoxyphenyl)-5-(2-furanyl)-4H-1,2,4-triazol-3-yl)ethanesulfonamide], 220 pM. Under `COCCO[C@H](c1ncc(C)cn1)[C@H](C)S(=O)(=O)Nc1nnc(-c2ccc(C)o2)n1-c1c(OC)cccc1OC` [Example 120.0, (1R,2S)—N-(4-(2,6-Dimethoxyphenyl)-5-(5-methylfuran-2-yl)-4H-1,2,4-triazol-3-yl)-1-(2-methoxyethoxy)-1-(5-methylpyrimidin-2-yl)propane-2-sulfonamide] stands 150 pM. On to `COc1cccc(OC)c1-n1c(NS(=O)(=O)[C@H](C)[C@@H](O)c2ccc(C#N)c(C)n2)nnc1-c1ccc(C)o1` (racemic) [Example 88.0], for which the EC50 came to 510 pM. Under `COc1cccc(OC)c1-n1c(NS(=O)(=O)[C@H]2CCCN(S(=O)(=O)C(C)C)C2)nnc1-c1ccco1` (single isomer, unassigned) [Example 339.0, (S)—N-(4-(2,6-Dimethoxyphenyl)-5-(furan-2-yl)-4H-1,2,4-triazol-3-yl)-1-(isopropylsulfonyl)piperidine-3-sulfonamide or (R)—N-(4-(2,6-dimethoxyphenyl)-5-(furan-2-yl)-4H-1,2,4-triazol-3-yl)-1-(isopropylsulfonyl)piperidine-3-sulfonamide] stands 62000 pM. Under `COc1ccnc(N2C[C@H](O)C[C@H](S(=O)(=O)Nc3nnc(-c4ccc(C)o4)n3-c3c(OC)cccc3OC)C2)n1` (single isomer, unassigned) [Example 327.0, (3S,5R)—N-(4-(2,6-Dimethoxyphenyl)-5-(5-methyl-2-furanyl)-4H-1,2,4-triazol-3-yl)-5-hydroxy-1-(4-methoxy-2-pyrimidinyl)-3-piperidinesulfonamide or (3R,5S)—N-(4-(2,6-dimethoxyphenyl)-5-(5-methyl-2-furanyl)-4H-1,2,4-triazol-3-yl)-5-hydroxy-1-(4-methoxy-2-pyrimidinyl)-3-piperidinesulfonamide] stands 250 pM; under `COc1cccc(OC)c1-n1c(NS(=O)(=O)[C@H](C)Cc2cncnc2)nnc1-c1ccco1` (single isomer, unassigned) [Example 45.0, (2R)—N-(4-(2,6-dimethoxyphenyl)-5-(2-furanyl)-4H-1,2,4-triazol-3-yl)-1-(5-pyrimidinyl)-2-propanesulfonamide or (2S)—N-(4-(2,6-dimethoxyphenyl)-5-(2-furanyl)-4H-1,2,4-triazol-3-yl)-1-(5-pyrimidinyl)-2-propanesulfonamide], 72000 pM.

Regarding `COc1cccc(OC)c1-n1c(NS(=O)(=O)[C@@H](C)[C@H](C)c2ncc(F)cn2)nnc1-c1ccc(C)o1` (racemic) [Example 135.0], the half-maximal effective concentration (EC50) was found to be 16000 pM.

For `COc1ncnc(OC)c1-n1c(NS(=O)(=O)[C@@H](C)[C@H](OC)c2ncc(Cl)cn2)nnc1-c1ccc(C)o1` [Example 384.0, (1R,2S)-1-(5-chloro-2-pyrimidinyl)-N-(4-(4,6-dimethoxy-5-pyrimidinyl)-5-(5-methyl-2-furanyl)-4H-1,2,4-triazol-3-yl)-1-methoxy-2-propanesulfonamide], the EC50 stood at 150 pM. Under `Cc1ccc(-c2nnc(NS(=O)(=O)[C@@H](C)Cc3ncc(F)cn3)n2C2CCOCC2)o1` (racemic) [Example 317.0, (2S)-1-(5-Fluoro-2-pyrimidinyl)-N-(5-(5-methyl-2-furanyl)-4-(tetrahydro-2H-pyran-4-yl)-4H-1,2,4-triazol-3-yl)-2-propanesulfonamide and (2R)-1-(5-fluoro-2-pyrimidinyl)-N-(5-(5-methyl-2-furanyl)-4-(tetrahydro-2H-pyran-4-yl)-4H-1,2,4-triazol-3-yl)-2-propanesulfonamide] stands 310000 pM; under `COc1cccc(OC)c1-n1c(NS(=O)(=O)[C@@H]2CCC[C@H]2c2ncc(F)cn2)nnc1-c1ccc(C)o1` (single isomer, unassigned) [Example 101.0, (1R,2S)—N-(4-(2,6-Dimethoxyphenyl)-5-(5-methyl-2-furanyl)-4H-1,2,4-triazol-3-yl)-2-(5-fluoro-2-pyrimidinyl)cyclopentanesulfonamide or (1S,2R)—N-(4-(2,6-dimethoxyphenyl)-5-(5-methyl-2-furanyl)-4H-1,2,4-triazol-3-yl)-2-(5-fluoro-2-pyrimidinyl)cyclopentanesulfonamide], 2000 pM; under `COc1ccnc(N2C[C@H](O)C[C@H](S(=O)(=O)Nc3nnc(-c4ccc(C)o4)n3-c3c(OC)cccc3OC)C2)n1` (mixture of isomers) [Example 324.0, (3S,5R)—N-(4-(2,6-Dimethoxyphenyl)-5-(5-methyl-2-furanyl)-4H-1,2,4-triazol-3-yl)-5-hydroxy-1-(4-methoxy-2-pyrimidinyl)-3-piperidinesulfonamide and (3R,5S)—N-(4-(2,6-dimethoxyphenyl)-5-(5-methyl-2-furanyl)-4H-1,2,4-triazol-3-yl)-5-hydroxy-1-(4-methoxy-2-pyrimidinyl)-3-piperidinesulfonamide], 210 pM.

For `CCO[C@H](c1ncc(C)cn1)[C@@H](C)S(=O)(=O)Nc1nnc(-c2ccc(C)o2)n1-c1c(OC)cccc1OC` (single isomer, unassigned) [Example 130.0, (1R,2R)-N-(4-(2,6-dimethoxyphenyl)-5-(5-methylfuran-2-yl)-4H-1,2,4-triazol-3-yl)-1-ethoxy-1-(5-methylpyrimidin-2-yl)propane-2-sulfonamide or (1S,2S)-N-(4-(2,6-dimethoxyphenyl)-5-(5-methylfuran-2-yl)-4H-1,2,4-triazol-3-yl)-1-ethoxy-1-(5-methylpyrimidin-2-yl)propane-2-sulfonamide], the half-maximal effective concentration (EC50) was 3500 pM. Under `COCC[C@@H](Cc1ncc(C)cn1)S(=O)(=O)Nc1nnc(-c2ccc(C)o2)n1-c1c(OC)cccc1OC` (single isomer, unassigned) [Example 71.0, (2R)—N-(4-(2,6-Dimethoxyphenyl)-5-(5-methyl-2-furanyl)-4H-1,2,4-triazol-3-yl)-4-methoxy-1-(5-methyl-2-pyrimidinyl)-2-butanesulfonamide or (2S)—N-(4-(2,6-dimethoxyphenyl)-5-(5-methyl-2-furanyl)-4H-1,2,4-triazol-3-yl)-4-methoxy-1-(5-methyl-2-pyrimidinyl)-2-butanesulfonamide] stands 470 pM.
